Measurements taken from patent US20230339854A1, “Negative Allosteric Modulation of GluN3-Containing N-Methyl-D-Aspartate Receptors” (Emory University, priority 2020, published 2023).
“Also recorded” adds a separate entry of the source. Where two headings read alike, the source gives them in different places.

How the values were obtained:
[1] = target: T1, human GluN1^FA,TL/GluN3A receptors (Homo sapiens, UniProt Q8TCU5); experiment: Two-electrode voltage-clamp recordings of GluN1^FA,TL/GluN3A receptors in Xenopus oocytes; format: cell-based; details: for Slope: concentration-response curve; for Slope / minimum: 1000 μM glycine; for % Inhibition GluN1^FATL/GluN3A / Max Inhibition: fitted maximum at saturating test compound; for minimum: residual response at saturating concentration; for hGluN1^FA,TL/hGluN3A (100 × Idrug/Icontrol): @ 10 μM; for Max Inhibition: 100 × (1 − Idrug/Icontrol); for remaining activity at 30 µM: read-out: hGluN1^FA,TL/hGluN3A (100 × Idrug/Icontrol at 30 μM drug)
T1 construct: Human GluN3A (NP_597702.2) and rat GluN3B (NP_579842.2) were synthesized and subcloned into SP6 plasmids; expressed in transfected cells; host or cells: Xenopus laevis oocytes, cRNA injection (GluN1:GluN3 1:3)
Summary of the method: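 Human GluN1 with human GluN3A cRNA (1:3) in oocytes, recorded 2-5 days post-injection at 23° C, holding −40 mV, in Ba2+-containing recording solution pH 7.4. Compounds screened at 10 or 30 μM; those inhibiting >20% given concentration-response fits for IC50, Hill slope and residual inhibition.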

[2] = target: T2, rat GluN1-4a/GluN3B receptors (Rattus norvegicus, UniProt Q8VHN2); experiment: Two-electrode voltage-clamp recordings of GluN1-4a/GluN3B receptors in the presence of CGP-78608 (Xenopus oocytes); format: cell-based; details: @ 10 μM drug; 0.5 μM CGP-78608
T2 construct: Human GluN3A (NP_597702.2) and rat GluN3B (NP_579842.2) were synthesized and subcloned into SP6 plasmids; expressed in transfected cells; host or cells: Xenopus laevis oocytes, cRNA injection
T2 sequence (Q8VHN2 25-1002, other chains not shown): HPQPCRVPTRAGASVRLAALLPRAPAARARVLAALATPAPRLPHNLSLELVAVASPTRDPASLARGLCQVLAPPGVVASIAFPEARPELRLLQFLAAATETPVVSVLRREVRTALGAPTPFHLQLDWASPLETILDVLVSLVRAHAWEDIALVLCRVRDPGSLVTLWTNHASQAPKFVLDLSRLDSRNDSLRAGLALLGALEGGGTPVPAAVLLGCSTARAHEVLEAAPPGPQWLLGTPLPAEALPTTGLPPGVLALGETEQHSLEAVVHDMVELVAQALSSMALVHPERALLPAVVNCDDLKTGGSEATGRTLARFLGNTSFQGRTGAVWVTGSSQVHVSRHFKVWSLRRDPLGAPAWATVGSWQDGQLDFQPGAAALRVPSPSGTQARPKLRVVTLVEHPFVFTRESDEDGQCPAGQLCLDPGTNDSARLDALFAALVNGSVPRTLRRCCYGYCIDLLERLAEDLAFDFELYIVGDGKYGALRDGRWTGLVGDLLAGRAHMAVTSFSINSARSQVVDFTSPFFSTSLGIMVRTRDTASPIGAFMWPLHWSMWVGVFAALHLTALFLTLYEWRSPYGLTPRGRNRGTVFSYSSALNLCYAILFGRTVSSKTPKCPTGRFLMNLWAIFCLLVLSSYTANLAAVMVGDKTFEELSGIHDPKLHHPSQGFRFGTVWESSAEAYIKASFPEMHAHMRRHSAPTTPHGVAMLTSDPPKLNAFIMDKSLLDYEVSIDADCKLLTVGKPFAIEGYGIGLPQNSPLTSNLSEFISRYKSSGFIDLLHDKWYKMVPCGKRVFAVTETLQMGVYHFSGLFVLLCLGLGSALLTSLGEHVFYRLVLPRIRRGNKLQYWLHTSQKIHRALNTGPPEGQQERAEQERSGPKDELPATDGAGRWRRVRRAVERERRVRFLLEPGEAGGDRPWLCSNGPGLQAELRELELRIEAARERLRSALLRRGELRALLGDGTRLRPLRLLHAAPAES
Source text: (§1) cDNA encoding human wild-type (WT) GluN1-1a (GenBank accession numbers NP_015566, hereafter GluN1) and rat GluN1-1a (NP_058706.1) were synthesized and subcloned into pGEMHE plasmid; some experiments used the rat splice variant GluN1-4a (NP_001257531.1). Human GluN3A (NP_597702.2) and rat GluN3B (NP_579842.2) were synthesized and subcloned into SP6 plasmids. For most experiments, human GluN1 was co-expressed with human GluN3A, except for mutagenesis experiments where rat GluN1 was co-expressed with human GluN3A. Rat GluN1-4a was always expressed with rat GluN3B.
(§2) Defolliculated Xenopus laevis oocytes (stage V-VI) were obtained from Ecocyte BioScience (Austin, Texas), or prepared from commercially available Xenopus ovaries (Xenopus 1, Dexter, MI) as previously described (Hansen, et al., Mol. Pharmacol., 2013). A Drummond Nanoject II (Broomall, PA) was used to inject oocytes with cRNAs encoding GluN1 and GluN3 at a 1:3 ratio in RNase-free water. The cRNA was diluted as needed to give responses with amplitudes ranging between 200-2000 nA (0.2-10 ng total cRNA). Following cRNA injection, the oocytes were stored at 15-19° C. in Barth's solution that contained (in mM) 88 NaCl, 2.4 NaHCO3, 1 KCl, 0.33 Ca(NO3)2, 0.41 CaCl2), 0.82 MgSO4, and 5 Tris-HCl (pH 7.4 with NaOH), supplemented with 1 μg/ml streptomycin (Invitrogen, Carlsbad, CA) and 100 μg/ml gentamicin (Fisher Scientific, Pittsburgh, PA). Recordings were performed 2-5 days following cRNA microinjection at room temperature (23° C.) using a two-electrode voltage-clamp amplifier (OC725, Warner Instrument, Hamilton, CT). The signal was low-pass filtered at 10-20 Hz (4-pole, −3 dB Bessel) and digitized at the Nyquist rate using PCI-6025E or USB-6212 BNC data acquisition boards (National Instruments, Austin, TX) using EasyOocyte (http://www.easyoocyte.io/). Oocytes were placed in a custom-made chamber and continuously perfused (2.5 ml/min) with oocyte recording solution containing (in mM) 90 NaCl, 1 KCl, 10 HEPES, 0.5-1.0 BaCl2, and 0.01 EDTA (pH 7.4 with NaOH). Solutions were applied by gravity, and solution exchange was controlled through a rotary valve (Hamilton, Reno, NV). Recording electrodes were filled with 0.3-3.0 M KCl, and current responses were recorded at a holding potential of −40 mV.
(§3) Response (%)=(100−minimum)/(1+([concentration]/IC50)^nH)+minimum (2) • where nH is the Hill slope, IC50 is the concentration that produces a half-maximal effect, and minimum is the degree of residual inhibition at a saturating concentration of the negative allosteric modulator.
(§4) Selected compounds were also screened in the same assay as EU1180-438 to determine their effect on GluN3B.

GluN1/GluN3 receptors = details: hydrochloride; cited from earlier work
[3] = system: GluN1/GluN2 NMDA receptors (GluN2A, GluN2B, GluN2C, GluN2D); experiment: Recombinant GluN1/GluN2 NMDA receptors in Xenopus oocytes (selectivity); format: cell-based, rat
[4] = target: T3, rat GluN1-4a/GluN3B receptors (Rattus norvegicus, UniProt P35439+Q8VHN2); experiment: Two-electrode voltage-clamp recordings of GluN1-4a/GluN3B receptors in the presence of CGP-78608 (Xenopus oocytes); format: cell-based; details: 0.5 μM CGP-78608
T3 construct: Human GluN3A (NP_597702.2) and rat GluN3B (NP_579842.2) were synthesized and subcloned into SP6 plasmids; expressed in transfected cells; host or cells: Xenopus laevis oocytes, cRNA injection
T3 sequence (Q8VHN2 25-1002, other chains not shown): as above
Source text: as §1, §2, §3, §4

GluN1 = GluN1 (Homo sapiens, UniProt Q05586); details: read-out: EC50 (glycine binding GluN1); cited from earlier work
[5] = pH 7.4, holding potential −40 mV, read-out: EC50, (95% CI) GluN1^FATL/GluN3A
[6] = responses activated by 1000 μM glycine, pH 7.4, read-out: IC50
[7] = hGluN1^FA,TL/hGluN3A, read-out: IC50
[8] = hGluN1^FA,TL/hGluN3A, read-out: IC50 (95% CI) GluN3A

For `COc1ccc(OCC(c2ccc(OC)cc2)N2Cc3ccccc3C2=O)cc1` (single isomer, unassigned; (+)) [(+) EU1180-438, 2-(2-(4-methoxyphenoxy)-1-(4-methoxyphenyl)ethyl)isoindolin-1-one], the Slope [1] was 1.2, the “% Inhibition GluN1^FATL/GluN3A” value ([1]; pH 7.4) was 96%^a, (n = 22) and the IC50 [1, 5] was 7.1 µM. The minimum [1] was 4%, the IC50 [1, 6] was 7.1 µM and the “rat GluN1-4a/GluN3B + CGP (100 × Idrug/Icontrol)” value [2] was 28% @ 10 μM drug.
With `COc1ccc(OCC(c2ccc(OC)cc2)N2Cc3ccccc3C2=O)cc1` (single isomer, unassigned; (-)) [(−) EU1180-438, 2-(2-(4-methoxyphenoxy)-1-(4-methoxyphenyl)ethyl)isoindolin-1-one] the Slope [1] was 1.4, the “% Inhibition GluN1^FATL/GluN3A” value ([1]; pH 7.4) was 84%^a, (n = 20) and the IC50 [1, 5] was 13 µM. The minimum [1] was 16%, the IC50 [1, 6] was 13 µM and the “rat GluN1-4a/GluN3B + CGP (100 × Idrug/Icontrol)” value [2] was 70% @ 10 μM drug.
In the case of `C[C@@H](NCc1cc(Br)cc2[nH]c(=O)c(=O)[nH]c12)P(=O)(O)O.Cl` [CGP-78608, [(1S)-1-[[(7-bromo-1,2,3,4-tetrahydro-2,3-dioxo-5-quinoxalinyl)methyl]amino]ethyl] phosphonic acid hydrochloride], the “effect on activation of GluN1/GluN3 receptors” value (GluN1/GluN3 receptors) is listed as “dramatically enhance activation of GluN1/GluN3 receptors; also recorded: strongly enhance GluN1/GluN3A current responses”.
For `COc1ccc(OCC(c2ccc(OC(C)C)cc2)N2Cc3ccccc3C2=O)cc1` (stereo not drawn) [EU1180-481, 2-(1-(4-isopropoxyphenyl)-2-(4-methoxyphenoxy)ethyl)isoindolin-1-one], the “hGluN1^FA,TL/hGluN3A (100 × Idrug/Icontrol)” value [1] was 57%, the “Max Inhibition” value [1] was 54% and the IC50 [1, 7] was 3.12 µM. The IC50 [1, 8] was 3.12 µM and the “activity toward recombinant GluN1/GluN2 NMDA receptors (GluN2A-D)” value ([3]; 30 μM) was “no detectable activity”.
With `COc1ccc(OCC(c2ccccc2)N2Cc3ccccc3C2=O)cc1` (stereo not drawn) [EU1180-487, 2-(2-(4-methoxyphenoxy)-1-phenyl-ethyl)isoindolin-1-one] the “Max Inhibition” value [1] was 78%, the IC50 [1, 8] was 10.8 µM and the IC50 [4] was 6.49 µM. For the same compound, the “rat GluN1-4a/GluN3B + CGP (100 × Idrug/Icontrol)” value [2] was 42% @ 10 μM drug and the “activity toward recombinant GluN1/GluN2 NMDA receptors (GluN2A-D)” value ([3]; 30 μM) was “no detectable activity”.
With `COc1ccc(OCC(c2ccccc2)N2CCc3ccccc3C2=O)cc1` (stereo not drawn) [EU1180-488, 2-(2-(4-methoxyphenoxy)-1-phenylethyl)-3,4-dihydroisoquinolin-1(2H)-one] the “Max Inhibition” value [1] was 88%, the IC50 [1, 8] was 3.29 µM and the IC50 [4] was 3.43 µM. The “rat GluN1-4a/GluN3B + CGP (100 × Idrug/Icontrol)” value [2] was 38% @ 10 μM drug and the “activity toward recombinant GluN1/GluN2 NMDA receptors (GluN2A-D)” value ([3]; 30 μM) was “no detectable activity”.
With `COc1ccc(OCC(c2ccc(OC)cc2)N2CCc3ccccc3C2=O)cc1` (stereo not drawn) [EU1180-489, 2-(2-(4-methoxyphenoxy)-1-(4-methoxyphenyl)ethyl)-3,4-dihydroisoquinolin-1(2H)-one] the “Max Inhibition” value [1] was 44%, the IC50 [1, 8] was 10.8 µM and the IC50 [4] was 3.57 µM. For the same compound, the “rat GluN1-4a/GluN3B + CGP (100 × Idrug/Icontrol)” value [2] was 31% @ 10 μM drug and the “activity toward recombinant GluN1/GluN2 NMDA receptors (GluN2A-D)” value ([3]; 30 μM) was “no detectable activity”.
For `COc1ccc(OCC(c2ccc(OC)c(OC)c2)N2Cc3ccccc3C2=O)cc1` (stereo not drawn) [EU1180-494, 2-(1-(3,4-dimethoxyphenyl)-2-(4-methoxyphenoxy)ethyl)isoindolin-1-one], the “Max Inhibition” value [1] was 3% and the “activity toward recombinant GluN1/GluN2 NMDA receptors (GluN2A-D)” value ([3]; 30 μM) was “no detectable activity”.
With `CCOc1ccc(OCC(c2ccc(OC(C)C)cc2)N2Cc3ccccc3C2=O)cc1` (stereo not drawn) [EU1180-499, 2-(2-(4-ethoxyphenoxy)-1-(4-isopropoxyphenyl)ethyl)isoindolin-1-one] the “hGluN1^FA,TL/hGluN3A (100 × Idrug/Icontrol)” value [1] was 67%, the IC50 [1, 7] was 2.1 µM and the “activity toward recombinant GluN1/GluN2 NMDA receptors (GluN2A-D)” value [3] was “None of them showed any activity”.
With `Cc1cccc(OCC(c2ccc(OC(C)C)cc2)N2Cc3ccccc3C2=O)n1` (stereo not drawn) [EU1180-508, 2-(1-(4-isopropoxyphenyl)-2-((6-methylpyridin-2-yl)oxy)ethyl)isoindolin-1-one] the “hGluN1^FA,TL/hGluN3A (100 × Idrug/Icontrol)” value [1] was 28%, the IC50 [1, 7] was 3.93 µM and the “activity toward recombinant GluN1/GluN2 NMDA receptors (GluN2A-D)” value [3] was “None of them showed any activity”.
In the case of `Cc1cccc(OCC(c2ccc(OC(C)C)cc2)N2Cc3ccc(Cl)cc3C2=O)n1` (stereo not drawn) [EU1180-509, 6-chloro-2-(1-(4-isopropoxyphenyl)-2-((6-methylpyridin-2-yl)oxy)ethyl)isoindolin-1-one], the “hGluN1^FA,TL/hGluN3A (100 × Idrug/Icontrol)” value [1] is reported as 81% and the “activity toward recombinant GluN1/GluN2 NMDA receptors (GluN2A-D)” value [3] is reported as “None of them showed any activity”.
With `Cc1cccc(OCC(c2ccc(OC(C)C)cc2)N2Cc3cc(Cl)ccc3C2=O)n1` (stereo not drawn) [EU1180-510, 5-chloro-2-(1-(4-isopropoxyphenyl)-2-((6-methylpyridin-2-yl)oxy)ethyl)isoindolin-1-one] the remaining activity at 30 µM [1] was 94% and the “activity toward recombinant GluN1/GluN2 NMDA receptors (GluN2A-D)” value [3] was “None of them showed any activity”.
For `Cc1cccc(OCC(c2ccc(OC(C)C)cc2)N2Cc3ccc(C(F)(F)F)cc3C2=O)n1` (stereo not drawn) [EU1180-511], the remaining activity at 30 µM [1] was 94% and the “activity toward recombinant GluN1/GluN2 NMDA receptors (GluN2A-D)” value [3] was “None of them showed any activity”.
For `NCC(=O)O` [glycine], the EC50 (GluN1) is listed as 0.1 to 1 µM.
